The target of data set [1] is ATP-binding cassette sub-family C member 2 (Homo sapiens, UniProt Q92887). In words: TP_TRANSPORTER: inhibition of LTC4 uptake (LTC4: 0.05 uM, MK571: 10 uM) in membrane vesicles from MRP2-expressing MDCK cells. Type of data set: functional, cell membranes, Membrane vesicle. The conditions noted are these: dog.
Data set [2] addresses ATP-dependent translocase ABCB1 (Homo sapiens, UniProt P08183). Nature of the data set: TP_TRANSPORTER: cell accumulation in CCRF-CEM and CEM/VLB100 cells. Type of data set: functional, cell-based.

Activity data for three molecules are collected here from ChEMBL document CHEMBL2073838, “Selectivity of the multidrug resistance modulator, LY335979, for P-glycoprotein and effect on cytochrome P-450 activities” (J Pharmacol Exp Ther, 1999).

Chain of ATP-dependent translocase ABCB1 (P08183 whole entry): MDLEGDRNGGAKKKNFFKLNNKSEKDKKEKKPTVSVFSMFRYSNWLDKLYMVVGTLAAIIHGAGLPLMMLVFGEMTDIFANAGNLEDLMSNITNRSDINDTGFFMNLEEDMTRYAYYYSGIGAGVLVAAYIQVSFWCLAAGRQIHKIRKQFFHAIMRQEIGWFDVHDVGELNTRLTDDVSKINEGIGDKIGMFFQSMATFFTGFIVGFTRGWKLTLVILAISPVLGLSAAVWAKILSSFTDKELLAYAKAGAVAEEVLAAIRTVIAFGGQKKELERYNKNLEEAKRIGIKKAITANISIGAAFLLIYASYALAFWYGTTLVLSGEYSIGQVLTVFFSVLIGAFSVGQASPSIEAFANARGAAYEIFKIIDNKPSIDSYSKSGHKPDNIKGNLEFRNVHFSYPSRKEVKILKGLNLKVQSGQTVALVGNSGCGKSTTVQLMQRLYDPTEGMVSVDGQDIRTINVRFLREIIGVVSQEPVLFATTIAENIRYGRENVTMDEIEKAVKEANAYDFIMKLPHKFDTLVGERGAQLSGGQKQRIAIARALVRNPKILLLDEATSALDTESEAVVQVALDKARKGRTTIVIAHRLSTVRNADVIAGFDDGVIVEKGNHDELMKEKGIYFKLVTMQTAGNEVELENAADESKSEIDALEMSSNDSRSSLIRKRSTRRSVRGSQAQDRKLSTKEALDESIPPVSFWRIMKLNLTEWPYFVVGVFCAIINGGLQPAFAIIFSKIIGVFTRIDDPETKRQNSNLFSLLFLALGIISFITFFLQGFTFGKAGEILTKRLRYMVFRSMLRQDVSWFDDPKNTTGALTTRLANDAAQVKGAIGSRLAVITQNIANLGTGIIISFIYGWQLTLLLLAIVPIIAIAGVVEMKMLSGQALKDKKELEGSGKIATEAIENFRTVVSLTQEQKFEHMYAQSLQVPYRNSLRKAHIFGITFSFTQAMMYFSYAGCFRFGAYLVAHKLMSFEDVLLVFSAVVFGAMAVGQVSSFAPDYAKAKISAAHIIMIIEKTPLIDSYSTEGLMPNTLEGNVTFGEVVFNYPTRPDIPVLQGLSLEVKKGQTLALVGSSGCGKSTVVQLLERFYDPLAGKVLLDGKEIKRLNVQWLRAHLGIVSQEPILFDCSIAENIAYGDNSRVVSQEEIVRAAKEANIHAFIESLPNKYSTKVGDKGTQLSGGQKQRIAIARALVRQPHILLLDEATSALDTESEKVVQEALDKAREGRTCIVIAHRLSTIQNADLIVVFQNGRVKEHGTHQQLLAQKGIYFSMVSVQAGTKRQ
Chain of ATP-binding cassette sub-family C member 2 (Q92887 whole entry): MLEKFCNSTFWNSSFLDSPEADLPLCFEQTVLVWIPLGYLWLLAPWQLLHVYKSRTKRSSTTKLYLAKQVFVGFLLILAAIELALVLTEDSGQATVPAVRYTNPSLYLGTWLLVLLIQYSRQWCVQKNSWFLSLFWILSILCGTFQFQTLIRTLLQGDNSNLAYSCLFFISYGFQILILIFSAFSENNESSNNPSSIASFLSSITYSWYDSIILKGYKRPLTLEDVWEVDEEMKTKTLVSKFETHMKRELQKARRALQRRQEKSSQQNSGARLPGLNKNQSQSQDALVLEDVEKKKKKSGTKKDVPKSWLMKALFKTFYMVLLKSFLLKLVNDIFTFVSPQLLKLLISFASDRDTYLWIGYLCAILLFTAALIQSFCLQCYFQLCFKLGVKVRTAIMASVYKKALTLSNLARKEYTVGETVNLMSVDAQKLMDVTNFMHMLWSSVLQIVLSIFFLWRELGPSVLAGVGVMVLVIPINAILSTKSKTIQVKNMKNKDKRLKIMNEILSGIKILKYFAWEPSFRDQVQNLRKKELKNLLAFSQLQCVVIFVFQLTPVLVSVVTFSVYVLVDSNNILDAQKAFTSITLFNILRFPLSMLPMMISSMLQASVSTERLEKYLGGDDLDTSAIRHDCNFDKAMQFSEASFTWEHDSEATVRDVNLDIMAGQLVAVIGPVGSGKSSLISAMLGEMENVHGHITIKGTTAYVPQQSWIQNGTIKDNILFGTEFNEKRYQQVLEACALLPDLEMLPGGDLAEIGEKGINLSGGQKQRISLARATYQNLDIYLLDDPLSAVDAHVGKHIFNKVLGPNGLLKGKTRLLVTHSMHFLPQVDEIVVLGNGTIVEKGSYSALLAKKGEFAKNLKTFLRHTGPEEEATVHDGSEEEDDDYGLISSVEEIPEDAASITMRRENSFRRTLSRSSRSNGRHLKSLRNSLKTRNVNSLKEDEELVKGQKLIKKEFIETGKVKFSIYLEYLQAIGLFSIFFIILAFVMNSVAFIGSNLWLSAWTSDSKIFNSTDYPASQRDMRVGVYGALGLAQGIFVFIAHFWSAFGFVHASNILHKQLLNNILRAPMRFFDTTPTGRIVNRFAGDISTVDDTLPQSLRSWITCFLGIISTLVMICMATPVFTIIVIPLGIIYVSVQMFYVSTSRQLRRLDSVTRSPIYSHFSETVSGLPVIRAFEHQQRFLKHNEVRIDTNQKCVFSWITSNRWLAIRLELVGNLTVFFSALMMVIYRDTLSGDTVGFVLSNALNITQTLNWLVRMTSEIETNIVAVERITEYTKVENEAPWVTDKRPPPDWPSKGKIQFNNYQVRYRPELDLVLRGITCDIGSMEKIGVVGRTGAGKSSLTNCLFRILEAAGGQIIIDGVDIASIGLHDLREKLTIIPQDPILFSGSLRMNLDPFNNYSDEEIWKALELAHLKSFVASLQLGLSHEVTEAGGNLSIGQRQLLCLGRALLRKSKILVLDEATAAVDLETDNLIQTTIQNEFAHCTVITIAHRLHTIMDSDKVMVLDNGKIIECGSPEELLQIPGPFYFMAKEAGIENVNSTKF

`CN(C)C(=O)CCSC(SCCC(=O)O)c1cccc(/C=C/c2ccc3ccc(Cl)cc3n2)c1` (stereo not drawn) [MK-571]: the Activity result in data set [1] was “inhibitor [+]”. As to `CC[C@]1(O)C[C@@H]2CN(CCc3c([nH]c4ccccc34)[C@@](C(=O)OC)(c3cc4c(cc3OC)N(C)[C@H]3[C@@](O)(C(=O)OC)[C@H](OC(C)=O)[C@]5(CC)C=CCN6CC[C@]43[C@@H]65)C2)C1` [VINBLASTINE], in data set [2], the Activity result was “substrate [+]”.

Take `Cl.Cl.Cl.O[C@@H](COc1cccc2ncccc12)CN1CCN([C@@H]2c3ccccc3[C@@H]3[C@H](c4ccccc42)C3(F)F)CC1` [ZOSUQUIDAR TRIHYDROCHLORIDE]: the Activity entry in data set [2] is “is not a substrate [-]”.
